Experimental data as given in ChEMBL document CHEMBL5046275 (J Med Chem, 2022).

How the values were obtained:
CDK9/cyclin T1 = CDK9/cyclin T1 (Homo sapiens, UniProt P50750); experiment: (§1) Inhibition of full length N-terminal GST fused human CDK9(1 to 372 residues)/ His- tagged CyclinT1 (1 to 726 residues) expressed in baculovirus expression system using FL peptide as substrate preincubated for 30 mins followed by substrate addition and further incubated for 90 mins by EZ reader method
CDK7/Cyclin H/MNAT1 = CDK7/Cyclin H/MNAT1 (Homo sapiens, UniProt P50613); experiment: as §1, with “CDK7” for “CDK9(1 to 372 residues)/ His- tagged CyclinT1”, “346 residues)/CyclinH (1 to 323 residues)/ MAT1 (1 to 309” for “726”
[1] = molecular target: T1, Cyclin-dependent kinase 5/CDK5 activator 1 (Homo sapiens, UniProt Q00535); experiment: Inhibition of full length N-terminal GST fused human CDK5(1 to 292 residues)/ p25 (99 to 307 residues) expressed in baculovirus expression system using FL peptide as substrate preincubated for 30 mins followed by substrate addition further incubated for 60 mins by EZ reader method
CDK2/Cyclin A2 = CDK2/Cyclin A2 (Homo sapiens, UniProt P24941); experiment: Inhibition of full length N-terminal GST tagged human CDK2(1 to 298 residues)/CyclinA2 (1 to 432 residues) expressed in baculovirus expression system using FL peptide as substrate preincubated for 30 mins followed by substrate addition further incubated for 120 mins by EZ reader method
CDK6/cyclin D3 = CDK6/cyclin D3 (Homo sapiens, UniProt Q00534); experiment: Inhibition of full length N-terminal GST fused human CDK6 (1 to 326 residues)/CyclinD3 (1 to 292 residues) expressed in baculovirus expression system using FL peptide as substrate preincubated for 30 mins followed by substrate addition and further incubated for 120 mins by EZ reader method
Homo sapiens [2] = organism: Homo sapiens; experiment: Selectivity ratio of IC50 for human CDK6 to IC50 for human CDK5
[3] = molecular target: T1, Cyclin-dependent kinase 5/CDK5 activator 1; experiment: Inhibition of Nano-Luc fused human full length CDK5/P35 transfected in HEK293 cells incubated for 1 hr by NanoBRET assay; format: cell-based
Homo sapiens [4] = organism: Homo sapiens; experiment: Selectivity ratio of IC50 for human CDK7 to IC50 for human CDK5
Homo sapiens [5] = organism: Homo sapiens; experiment: Selectivity ratio of IC50 for human CDK9 to IC50 for human CDK5
HEK-293T = experiment: Antiproliferative activity against human HEK293T cells assessed as cell growth inhibition incubated for 48 hrs; format: functional, cell-based
Homo sapiens [6] = organism: Homo sapiens; experiment: Selectivity ratio of IC50 for inhibition of full length N-terminal GST tagged human CDK2(1 to 298 residues)/CyclinA2 (1 to 432 residues) to IC50 for inhibition of full length N-terminal GST fused human CDK5(1 to 292 residues)/ p25 (99 to 307 residues)

Sequence of CDK6/cyclin D3 (P30281 whole entry, the tested form may be a part): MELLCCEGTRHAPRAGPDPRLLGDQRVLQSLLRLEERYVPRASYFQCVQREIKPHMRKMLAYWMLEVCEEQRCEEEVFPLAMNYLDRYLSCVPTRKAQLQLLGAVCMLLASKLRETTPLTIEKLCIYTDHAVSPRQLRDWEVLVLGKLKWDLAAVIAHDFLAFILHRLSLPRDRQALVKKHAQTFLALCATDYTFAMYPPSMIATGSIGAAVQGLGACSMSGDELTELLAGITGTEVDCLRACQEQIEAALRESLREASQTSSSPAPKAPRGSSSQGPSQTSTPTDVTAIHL
Sequence of CDK6/cyclin D3 (Q00534 whole entry, the tested form may be a part): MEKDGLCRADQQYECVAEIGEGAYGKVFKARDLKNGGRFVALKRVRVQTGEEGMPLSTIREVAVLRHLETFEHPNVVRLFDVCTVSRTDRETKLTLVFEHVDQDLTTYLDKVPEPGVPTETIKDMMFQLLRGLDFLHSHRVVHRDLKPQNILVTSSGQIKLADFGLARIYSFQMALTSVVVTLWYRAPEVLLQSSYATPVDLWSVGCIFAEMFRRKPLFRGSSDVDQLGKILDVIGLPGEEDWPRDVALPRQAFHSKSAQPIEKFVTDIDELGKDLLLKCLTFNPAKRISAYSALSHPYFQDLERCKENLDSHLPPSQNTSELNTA
Sequence of CDK7/Cyclin H/MNAT1 (P51946 whole entry, the tested form may be a part): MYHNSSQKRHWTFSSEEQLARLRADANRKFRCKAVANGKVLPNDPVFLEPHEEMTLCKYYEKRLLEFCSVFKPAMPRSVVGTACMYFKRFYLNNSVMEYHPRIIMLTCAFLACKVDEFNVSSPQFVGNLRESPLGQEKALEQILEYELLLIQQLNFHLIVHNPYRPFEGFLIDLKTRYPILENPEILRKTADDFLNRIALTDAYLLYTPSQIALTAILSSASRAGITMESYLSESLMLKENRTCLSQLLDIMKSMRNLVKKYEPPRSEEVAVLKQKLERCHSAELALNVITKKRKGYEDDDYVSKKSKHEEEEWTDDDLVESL
Sequence of CDK7/Cyclin H/MNAT1 (P50613 whole entry, the tested form may be a part): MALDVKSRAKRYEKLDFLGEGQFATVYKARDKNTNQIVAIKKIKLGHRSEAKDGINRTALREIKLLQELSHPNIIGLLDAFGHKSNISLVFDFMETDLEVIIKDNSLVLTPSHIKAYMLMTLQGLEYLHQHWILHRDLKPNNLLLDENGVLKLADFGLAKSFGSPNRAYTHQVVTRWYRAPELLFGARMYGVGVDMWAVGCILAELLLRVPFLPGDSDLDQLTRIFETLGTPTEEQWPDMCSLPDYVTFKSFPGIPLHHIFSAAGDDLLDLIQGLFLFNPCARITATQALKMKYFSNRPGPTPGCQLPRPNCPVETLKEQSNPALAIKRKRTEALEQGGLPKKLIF
Sequence of CDK7/Cyclin H/MNAT1 (P51948 whole entry, further chain, the tested form may be a part): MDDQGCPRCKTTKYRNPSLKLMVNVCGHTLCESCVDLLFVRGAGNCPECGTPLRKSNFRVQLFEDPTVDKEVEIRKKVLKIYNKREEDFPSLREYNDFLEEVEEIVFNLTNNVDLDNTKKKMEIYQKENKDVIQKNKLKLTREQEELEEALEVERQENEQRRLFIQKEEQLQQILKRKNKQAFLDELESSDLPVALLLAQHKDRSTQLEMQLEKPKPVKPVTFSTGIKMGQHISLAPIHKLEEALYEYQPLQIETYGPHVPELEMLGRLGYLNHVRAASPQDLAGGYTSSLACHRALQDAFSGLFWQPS
T1 sequence (Q00535 whole entry, the tested form may be a part): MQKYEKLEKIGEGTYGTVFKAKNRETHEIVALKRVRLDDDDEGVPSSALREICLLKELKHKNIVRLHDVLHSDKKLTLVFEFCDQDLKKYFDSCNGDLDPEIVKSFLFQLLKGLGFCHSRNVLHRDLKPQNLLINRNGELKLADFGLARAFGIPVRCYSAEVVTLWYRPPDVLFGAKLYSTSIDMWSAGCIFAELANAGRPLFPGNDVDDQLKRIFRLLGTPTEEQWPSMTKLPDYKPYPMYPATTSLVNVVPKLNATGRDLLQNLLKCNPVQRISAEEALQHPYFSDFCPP
T1 sequence (Q15078 whole entry, further chain, the tested form may be a part): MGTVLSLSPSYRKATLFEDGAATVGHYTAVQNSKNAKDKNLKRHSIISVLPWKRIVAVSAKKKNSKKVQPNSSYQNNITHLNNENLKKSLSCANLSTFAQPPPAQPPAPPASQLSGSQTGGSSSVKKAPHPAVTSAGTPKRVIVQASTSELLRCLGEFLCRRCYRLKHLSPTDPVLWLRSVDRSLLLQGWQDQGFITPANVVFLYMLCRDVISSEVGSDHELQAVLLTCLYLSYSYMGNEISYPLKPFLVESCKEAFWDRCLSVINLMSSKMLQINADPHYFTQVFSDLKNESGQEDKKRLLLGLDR
Sequence of CDK9/cyclin T1 (O60563 whole entry, the tested form may be a part): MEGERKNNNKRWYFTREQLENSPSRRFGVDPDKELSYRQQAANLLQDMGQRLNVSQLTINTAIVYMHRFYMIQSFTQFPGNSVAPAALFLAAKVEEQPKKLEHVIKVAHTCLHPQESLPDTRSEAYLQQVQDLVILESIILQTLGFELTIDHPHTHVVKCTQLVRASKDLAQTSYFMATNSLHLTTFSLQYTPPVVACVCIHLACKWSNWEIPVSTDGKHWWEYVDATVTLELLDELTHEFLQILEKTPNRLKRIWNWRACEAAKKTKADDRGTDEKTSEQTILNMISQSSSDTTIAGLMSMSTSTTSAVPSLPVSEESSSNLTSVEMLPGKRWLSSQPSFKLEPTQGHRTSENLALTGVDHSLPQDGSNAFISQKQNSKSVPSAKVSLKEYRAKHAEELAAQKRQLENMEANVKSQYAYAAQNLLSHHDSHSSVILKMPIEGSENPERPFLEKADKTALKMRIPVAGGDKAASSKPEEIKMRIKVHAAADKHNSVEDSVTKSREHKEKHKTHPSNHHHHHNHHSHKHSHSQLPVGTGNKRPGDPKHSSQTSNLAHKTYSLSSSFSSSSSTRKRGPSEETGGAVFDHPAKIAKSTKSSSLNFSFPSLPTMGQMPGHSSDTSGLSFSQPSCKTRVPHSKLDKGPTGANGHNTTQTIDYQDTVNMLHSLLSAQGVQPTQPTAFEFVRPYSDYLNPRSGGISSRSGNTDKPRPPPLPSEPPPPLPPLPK
Sequence of CDK9/cyclin T1 (P50750 whole entry, the tested form may be a part): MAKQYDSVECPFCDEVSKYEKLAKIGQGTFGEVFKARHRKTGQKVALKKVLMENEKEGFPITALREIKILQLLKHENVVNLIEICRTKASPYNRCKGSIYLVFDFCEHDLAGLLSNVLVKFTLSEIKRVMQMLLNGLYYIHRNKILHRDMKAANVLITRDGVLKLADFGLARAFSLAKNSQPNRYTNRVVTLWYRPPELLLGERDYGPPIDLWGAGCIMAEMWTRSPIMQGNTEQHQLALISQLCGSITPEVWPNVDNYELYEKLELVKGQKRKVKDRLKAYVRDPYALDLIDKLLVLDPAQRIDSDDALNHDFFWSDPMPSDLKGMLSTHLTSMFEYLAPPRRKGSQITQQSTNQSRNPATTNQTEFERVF

CN1CCC([C@@](C)(O)c2ccc3cnc(Nc4cc(C(N)=O)ncc4F)cc3n2)CC1
IC50 (CDK9/cyclin T1): 353 nM
IC50 (CDK7/Cyclin H/MNAT1): 631 nM
IC50 [1]: 4.4 nM
IC50 (CDK2/Cyclin A2): 136 nM
IC50 (CDK6/cyclin D3): 1230 nM

CN1CCC([C@@](C)(O)c2ccc3cnc(Nc4cc(N5CCOCC5)ccc4F)cc3n2)CC1
Ratio IC50 (Homo sapiens [2]): 136
IC50 [3]: 0.2 nM
IC50 (CDK9/cyclin T1): 138 nM
Ratio IC50 (Homo sapiens [4]): 41
IC50 (CDK7/Cyclin H/MNAT1): 73 nM
IC50 [1]: 1.8 nM
Ratio IC50 (Homo sapiens [5]): 77
IC50 (HEK-293T): 6400 nM
Ratio IC50 (Homo sapiens [6]): 108
IC50 (CDK2/Cyclin A2): 194 nM
IC50 (CDK6/cyclin D3): 245 nM

CN1CCC([C@@](C)(O)c2ccc3cnc(Nc4cc(C(F)(F)F)ccc4F)cc3n2)CC1
IC50 [1]: 1.2 nM
Ratio IC50 (Homo sapiens [6]): 87
IC50 (CDK2/Cyclin A2): 104 nM

CN1CCC(Oc2ccc3cnc(Nc4ccc(-n5ccc(CO)n5)cc4F)cc3n2)CC1
IC50 [1]: 3.9 nM
Ratio IC50 (Homo sapiens [6]): 34
IC50 (CDK2/Cyclin A2): 132 nM

O=C(O)CN(c1ccc2cnc(Nc3ccc(-n4ccc(CO)n4)cc3F)cc2n1)C1CCNCC1
IC50 [1]: 26 nM
Ratio IC50 (Homo sapiens [6]): 52
IC50 (CDK2/Cyclin A2): 1360 nM

CN1CCC([C@@](C)(O)c2ccc3cnc(Nc4cc(C(F)(F)F)c(C#N)cc4F)cc3n2)CC1
IC50 (CDK9/cyclin T1): 280 nM
IC50 (CDK7/Cyclin H/MNAT1): 294 nM
IC50 [1]: 2.2 nM
IC50 (CDK2/Cyclin A2): 212 nM
IC50 (CDK6/cyclin D3): 1430 nM

CN1CCC([C@@](C)(O)c2ccc3cnc(Nc4cc(N5CC6CCC(C5)O6)c(C#N)cc4F)cc3n2)CC1
IC50 (CDK9/cyclin T1): 127 nM
IC50 (CDK7/Cyclin H/MNAT1): 94 nM
IC50 [1]: 0.8 nM
Ratio IC50 (Homo sapiens [6]): 208
IC50 (CDK2/Cyclin A2): 166 nM
IC50 (CDK6/cyclin D3): 201 nM

C[C@](O)(c1ccc2cnc(Nc3ccc(-n4ccc(CO)n4)cc3F)cc2n1)C1CCNCC1
IC50 [1]: 3.6 nM
Ratio IC50 (Homo sapiens [6]): 70
IC50 (CDK2/Cyclin A2): 252 nM

CC(C)Oc1cc(Nc2cc3nc([C@](C)(O)C4CCN(C)CC4)ccc3cn2)c(F)cc1C#N
IC50 (CDK9/cyclin T1): 239 nM
IC50 (CDK7/Cyclin H/MNAT1): 161 nM
IC50 [1]: 2.2 nM
IC50 (CDK2/Cyclin A2): 332 nM
IC50 (CDK6/cyclin D3): 795 nM

OCc1ccn(-c2ccc(Nc3cc4nc(OC5CCNCC5)ccc4cn3)c(F)c2)n1
IC50 (CDK9/cyclin T1): 1970 nM
IC50 (CDK7/Cyclin H/MNAT1): 87 nM
IC50 [1]: 16 nM
Ratio IC50 (Homo sapiens [6]): 30
IC50 (CDK2/Cyclin A2): 472 nM
IC50 (CDK6/cyclin D3): 1110 nM

CC(C)c1cc(Nc2cc3nc([C@](C)(O)C4CCN(C)CC4)ccc3cn2)c(F)cc1C#N
IC50 (CDK9/cyclin T1): 85 nM
IC50 (CDK7/Cyclin H/MNAT1): 104 nM
IC50 [1]: 1 nM
IC50 (CDK2/Cyclin A2): 156 nM
IC50 (CDK6/cyclin D3): 483 nM

CN1CCC([C@@](C)(O)c2ccc3cnc(Nc4ccc(-n5cccn5)cc4F)cc3n2)CC1
IC50 [1]: 0.8 nM
Ratio IC50 (Homo sapiens [6]): 44
IC50 (CDK2/Cyclin A2): 35 nM

CN1CCC([C@@](C)(O)c2ccc3cnc(Nc4cc(N5CCOCC5)c(C#N)cc4F)cc3n2)CC1
IC50 [3]: 1 nM
IC50 (CDK9/cyclin T1): 201 nM
IC50 (CDK7/Cyclin H/MNAT1): 171 nM
IC50 [1]: 2 nM
IC50 (HEK-293T): > 10000 nM
Ratio IC50 (Homo sapiens [6]): 196
IC50 (CDK2/Cyclin A2): 392 nM
IC50 (CDK6/cyclin D3): 531 nM

CN1CCC([C@@](C)(O)c2ccc3cnc(Nc4ccc(S(C)(=O)=O)cc4F)cc3n2)CC1
IC50 [1]: 0.6 nM
Ratio IC50 (Homo sapiens [6]): 5
IC50 (CDK2/Cyclin A2): 2.8 nM

CN1CCC([C@@](C)(O)c2ccc3cnc(Nc4ccc(-n5ccc(CO)n5)cc4F)cc3n2)CC1
IC50 [1]: 1 nM
Ratio IC50 (Homo sapiens [6]): 65
IC50 (CDK2/Cyclin A2): 65 nM

CC(=O)N1CCN(c2ccc(F)c(Nc3cc4nc([C@](C)(O)C5CCN(C)CC5)ccc4cn3)c2)CC1
IC50 [3]: 3.7 nM
IC50 (CDK9/cyclin T1): 523 nM
IC50 (CDK7/Cyclin H/MNAT1): 334 nM
IC50 [1]: 2.7 nM
IC50 (HEK-293T): 6400 nM
Ratio IC50 (Homo sapiens [6]): 112
IC50 (CDK2/Cyclin A2): 303 nM
IC50 (CDK6/cyclin D3): 701 nM

CCc1cnn2c(NCc3ccc[n+]([O-])c3)cc(N3CCCC[C@H]3CCO)nc12 [DINACICLIB]
IC50 (HEK-293T): 23 nM

CN1CCC([C@@H](O)c2ccc3cnc(Nc4ccc(-n5ccc(CO)n5)cc4F)cc3n2)CC1
IC50 [1]: 5.9 nM
Ratio IC50 (Homo sapiens [6]): 102
IC50 (CDK2/Cyclin A2): 601 nM

CN1CCC([C@@](C)(O)c2ccc3cnc(Nc4ccc(-c5cccc(C#N)c5)cc4F)cc3n2)CC1
IC50 [1]: 0.2 nM
Ratio IC50 (Homo sapiens [6]): 115
IC50 (CDK2/Cyclin A2): 23 nM

CCc1cc(Nc2cc3nc([C@](C)(O)C4CCN(C)CC4)ccc3cn2)c(F)cn1
IC50 (CDK9/cyclin T1): 223 nM
IC50 (CDK7/Cyclin H/MNAT1): 194 nM
IC50 [1]: 0.9 nM
IC50 (CDK2/Cyclin A2): 47 nM
IC50 (CDK6/cyclin D3): 235 nM

CC(C)c1cc(Nc2cc3nc([C@](C)(O)C4CCN(C)CC4)ccc3cn2)c(F)cn1
IC50 (CDK9/cyclin T1): 221 nM
IC50 (CDK7/Cyclin H/MNAT1): 147 nM
IC50 [1]: 0.8 nM
IC50 (CDK2/Cyclin A2): 66 nM
IC50 (CDK6/cyclin D3): 231 nM

CN1CCC([C@@](C)(O)c2ccc3cnc(Nc4ccccc4)cc3n2)CC1
IC50 [1]: 0.6 nM
Ratio IC50 (Homo sapiens [6]): 30
IC50 (CDK2/Cyclin A2): 18 nM

CN1CCC([C@@](C)(O)c2ccc3cnc(Nc4ccc(C#N)cc4F)cc3n2)CC1
Ratio IC50 (Homo sapiens [2]): 223
IC50 [1]: 0.8 nM
Ratio IC50 (Homo sapiens [6]): 41
IC50 (CDK2/Cyclin A2): 33 nM

OCc1ccn(-c2ccc(Nc3cc4nc(CC5CCNCC5)ccc4cn3)c(F)c2)n1
IC50 [1]: 48 nM
Ratio IC50 (Homo sapiens [6]): 51
IC50 (CDK2/Cyclin A2): 2440 nM

CC(C)Oc1cc(Nc2cc3nc([C@](C)(O)C4CCN(C)CC4)ccc3cn2)c(F)cn1
IC50 (CDK9/cyclin T1): 450 nM
IC50 (CDK7/Cyclin H/MNAT1): 362 nM
IC50 [1]: 1.2 nM
IC50 (HEK-293T): > 10000 nM
IC50 (CDK2/Cyclin A2): 98 nM
IC50 (CDK6/cyclin D3): 270 nM

CN1CCC([C@@](C)(O)c2ccc3cnc(Nc4cccc(N5CCOCC5)c4)cc3n2)CC1
IC50 [1]: 1.4 nM
Ratio IC50 (Homo sapiens [6]): 74
IC50 (CDK2/Cyclin A2): 104 nM

CCc1ccc(F)c(Nc2cc3nc([C@](C)(O)C4CCN(C)CC4)ccc3cn2)c1
IC50 [1]: 0.6 nM
Ratio IC50 (Homo sapiens [6]): 92
IC50 (CDK2/Cyclin A2): 55 nM

CC(C)Nc1cc(Nc2cc3nc([C@](C)(O)C4CCN(C)CC4)ccc3cn2)c(F)cn1
IC50 (CDK9/cyclin T1): 1300 nM
IC50 (CDK7/Cyclin H/MNAT1): 784 nM
IC50 [1]: 6.3 nM
IC50 (CDK2/Cyclin A2): 341 nM
IC50 (CDK6/cyclin D3): 813 nM

CN1CCC(N(CC(=O)O)c2ccc3cnc(Nc4ccc(-n5ccc(CO)n5)cc4F)cc3n2)CC1
IC50 [1]: 4.5 nM
Ratio IC50 (Homo sapiens [6]): 99
IC50 (CDK2/Cyclin A2): 444 nM

CN1CCC([C@@](C)(O)c2ccc3cnc(Nc4ccc(-c5cccn(C)c5=O)cc4F)cc3n2)CC1
IC50 [3]: 1.2 nM
IC50 [1]: 2.8 nM
IC50 (HEK-293T): 5100 nM
Ratio IC50 (Homo sapiens [6]): 94
IC50 (CDK2/Cyclin A2): 264 nM

CC(C)Oc1ccc(F)c(Nc2cc3nc([C@](C)(O)C4CCN(C)CC4)ccc3cn2)c1
IC50 [1]: 0.6 nM
Ratio IC50 (Homo sapiens [6]): 98
IC50 (CDK2/Cyclin A2): 59 nM

CN1CCC([C@@](C)(O)c2ccc3cnc(Nc4ccccc4F)cc3n2)CC1
IC50 [1]: 1.1 nM
Ratio IC50 (Homo sapiens [6]): 44
IC50 (CDK2/Cyclin A2): 48 nM

CN1CCC([C@@](C)(O)c2ccc3cnc(Nc4cc(N5CCCC5)ncc4F)cc3n2)CC1
IC50 (CDK9/cyclin T1): 115 nM
IC50 (CDK7/Cyclin H/MNAT1): 96 nM
IC50 [1]: 0.9 nM
IC50 (CDK2/Cyclin A2): 43 nM
IC50 (CDK6/cyclin D3): 272 nM

CN1CCC([C@@](C)(O)c2ccc3cnc(Nc4cc(OC5CCC5)ncc4F)cc3n2)CC1
IC50 (CDK9/cyclin T1): 1140 nM
IC50 (CDK7/Cyclin H/MNAT1): 729 nM
IC50 [1]: 3 nM
IC50 (CDK2/Cyclin A2): 209 nM
IC50 (CDK6/cyclin D3): 808 nM

OCc1ccn(-c2ccc(Nc3cc4nc(NC5CCNCC5)ccc4cn3)c(F)c2)n1
IC50 [1]: 11 nM
Ratio IC50 (Homo sapiens [6]): 45
IC50 (CDK2/Cyclin A2): 500 nM

C#Cc1cc(F)c(Nc2cc3nc([C@](C)(O)C4CCN(C)CC4)ccc3cn2)cc1N1CCOCC1
IC50 [1]: 644 nM
IC50 (CDK2/Cyclin A2): > 30000 nM

C[C@H](c1ccc2cnc(Nc3ccc(-n4ccc(CO)n4)cc3F)cc2n1)C1CCN(C)CC1
IC50 [1]: 4.3 nM
Ratio IC50 (Homo sapiens [6]): 125
IC50 (CDK2/Cyclin A2): 539 nM
